The values below come from US12391737B2, “Soluble NPY2 receptor agonists” (Boehringer Ingelheim International GmbH, priority 2020, dated 2025).

A value given as a limit tells only on which side of the number the result lay.

Data set [1] deals with T1, human NPY4 receptor (hY4R) (Homo sapiens, UniProt P50391).
T1 construct: expressed in transfected cells; host or cells: CHO-K1
Nature of the data set: HTRF cAMP Gi assay, hY4R. Type of data set: cell-based. To be noted: CHO-K1 cells. Background: TR-FRET usually uses a lanthanide donor and a delayed reading to cut background.
Procedure: (§1) Briefly, the production of intracellular cAMP will generate a competition between unlabeled cAMP and exogenously added d2-cAMP for anti-cAMP antibodies conjugated to cryptate. CHO-K1 cells stably expressing the human NPY1, NPY2, NPY4 and NPY5 receptors were used with the cells brought to life from a frozen stock immediately before assay performance. 2000 cells per well were applied for all four NPY receptor subtype assays. A 384-well format was used applying a total volume of 20 μl using 5 μl cells, 2.5 μl peptide agonist, 2.5 μl forskolin and 5 μl of each of the fluorophores. […] Concentration-response evaluation of compounds was performed with 11 concentrations of agonist peptides (covering 3 decades). EC50 values were calculated by nonlinear regression using sigmoid concentration-response with variable slope.

The nature of data set [2]: Solubility determination. To be noted: for Sol6: pH 6; for Sol7: pH 7. In outline: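 Shake-flask style: 10 mg/ml peptide (TFA salt), 0.1 M sodium diphosphate pH 6.4/7.0, 600 rpm, 2 h, RT; filter; dilute 1 mg/ml in 50% MeCN; RP-UPLC, 0–100% B over 2 min, 50 °C. Solubility = sample/control area ratio. Final pH recorded.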
The target of data set [3] is T2, Human Neuropeptide Y2 Receptor (Homo sapiens, UniProt P49146).
T2 construct: purchased CHEMICON HTS066M
T2 sequence (P49146 1-381): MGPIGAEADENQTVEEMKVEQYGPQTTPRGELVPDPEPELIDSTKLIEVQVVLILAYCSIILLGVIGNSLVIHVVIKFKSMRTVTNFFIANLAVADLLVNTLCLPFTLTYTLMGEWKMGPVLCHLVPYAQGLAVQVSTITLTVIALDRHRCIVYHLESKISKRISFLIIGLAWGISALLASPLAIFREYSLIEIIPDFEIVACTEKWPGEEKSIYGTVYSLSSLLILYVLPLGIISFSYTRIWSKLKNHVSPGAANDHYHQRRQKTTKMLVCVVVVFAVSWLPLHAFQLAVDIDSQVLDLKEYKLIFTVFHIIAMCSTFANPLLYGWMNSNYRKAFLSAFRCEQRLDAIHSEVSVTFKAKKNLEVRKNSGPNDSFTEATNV
The data set can be described thus: Activity (RLB binding) after incubation in solutions at different pH values. On the procedure: The filtration RLB assay was carried out in 96-well plates in a final volume of 100 μl per well. Freeze-dried test peptides were dissolved in 100% dimethyl sulfoxide (DMSO) to stock solutions of 1 mM and serial dilutions were performed in assay buffer (50 mM HEPES, 5 mM MgCl2, 1 mM CaCl2, pH 7.4) containing 0.2% ovalbumin. […] Next, 80 μL membranes (HTS066M, ChemiSCREEN™ Human Neuropeptide Y2 Receptor Membrane Preparation, CHEMICON) were added to each well to give a final protein concentration of 0.5 μg/well. The plates were sealed and incubated at room temperature for 2 hours in a plate shaker set at 400 rpm. The incubation was stopped by vacuum filtration onto 0.5% polyethylene amine (PE) presoaked GF/C filters using a 96-well FilterMate™ harvester (Perkin Elmer) followed by four washes with 300 μl/well ice-cold wash buffer (50 mM HEPES, 500 mM NaCl, pH7.4). Filter plates were then dried for 60 min at room temperature and the bottom of the plates was sealed with backing tape UniFilter-96. Finally, 50 μl/well scintillation counter cocktail (Microscint20, Packard) was added and the radioactivity was counted in the Packard TopCount NXT scintillation counter. IC50 values (the half maximal inhibitory concentration of the agonist) were calculated by nonlinear regression analysis of sigmoidal dose-response curves.
The peptide was (partially) dissolved by shaking the filter unit horizontally at approx. 400 rpm for 2 hours at room temperature. The sample was filtered to remove any insoluble particles.

Data set [4] addresses T3, human NPY5 receptor (hY5R) (Homo sapiens, UniProt Q15761).
T3 sequence (Q15761 1-445): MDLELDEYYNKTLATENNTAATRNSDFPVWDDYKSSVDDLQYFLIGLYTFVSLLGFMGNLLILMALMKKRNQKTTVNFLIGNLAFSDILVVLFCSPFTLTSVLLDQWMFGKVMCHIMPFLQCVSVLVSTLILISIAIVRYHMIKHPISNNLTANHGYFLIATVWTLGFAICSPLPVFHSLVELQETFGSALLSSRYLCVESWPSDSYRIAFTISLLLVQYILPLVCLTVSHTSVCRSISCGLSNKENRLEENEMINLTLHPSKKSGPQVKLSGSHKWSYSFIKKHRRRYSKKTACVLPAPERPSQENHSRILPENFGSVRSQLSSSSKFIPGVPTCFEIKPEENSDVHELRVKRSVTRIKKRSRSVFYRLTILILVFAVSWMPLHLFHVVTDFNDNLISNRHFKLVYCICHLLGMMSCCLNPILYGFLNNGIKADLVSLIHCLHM
Nature of the data set: HTRF cAMP Gi assay, hY5R.
Procedure: as §1

For data set [5], the target named is T4, human NPY1 receptor (hY1R) (Homo sapiens, UniProt P25929).
T4 construct: expressed in transfected cells; host or cells: CHO-K1
T4 sequence (P25929 1-384): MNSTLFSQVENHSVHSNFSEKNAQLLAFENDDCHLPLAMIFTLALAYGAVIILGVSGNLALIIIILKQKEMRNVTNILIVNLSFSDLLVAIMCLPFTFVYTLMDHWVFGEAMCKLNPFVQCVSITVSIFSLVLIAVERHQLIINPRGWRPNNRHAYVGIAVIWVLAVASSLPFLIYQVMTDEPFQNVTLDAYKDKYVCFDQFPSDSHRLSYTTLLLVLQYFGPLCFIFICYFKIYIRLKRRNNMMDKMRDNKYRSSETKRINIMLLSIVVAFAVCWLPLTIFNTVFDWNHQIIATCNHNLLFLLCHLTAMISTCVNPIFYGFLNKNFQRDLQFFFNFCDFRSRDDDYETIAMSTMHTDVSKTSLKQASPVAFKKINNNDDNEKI
The data set can be described thus: HTRF cAMP Gi assay, hY1R. Type of data set: cell-based. The following applies: CHO-K1 cells.

Data set [6] concerns the target T2, Human Neuropeptide Y2 Receptor. The data set can be described thus: Radioligand binding competition assay (RLB). In short, it runs like this: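 Receptor membranes, 0.5 μg/well; buffer 50 mM HEPES/5 mM MgCl2/1 mM CaCl2/0.2% ovalbumin, pH 7.4; 2 h RT, shaking. GF/C filtration, cold HEPES/500 mM NaCl wash, scintillation count. IC50 by nonlinear regression.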
In data set [7] the target is T5, human NPY2 receptor (hY2R) (Homo sapiens, UniProt P49146).
T5 sequence (P49146 1-381): T2 sequence (P49146 1-381)
The data set can be described thus: HTRF cAMP Gi assay, hY2R.
Source text: The Homogenous Time Resolved fluorescence (HTRF) technology optimized for Gi coupled receptors has thoroughly been described in Cisbio cAMP Gi kit manual. Briefly, the production of intracellular cAMP will generate a competition between unlabeled cAMP and exogenously added d2-cAMP for anti-cAMP antibodies conjugated to cryptate. CHO-K1 cells stably expressing the human NPY1, NPY2, NPY4 and NPY5 receptors were used with the cells brought to life from a frozen stock immediately before assay performance. 2000 cells per well were applied for all four NPY receptor subtype assays. A 384-well format was used applying a total volume of 20 μl using 5 μl cells, 2.5 μl peptide agonist, 2.5 μl forskolin and 5 μl of each of the fluorophores. […] Concentration-response evaluation of compounds was performed with 11 concentrations of agonist peptides (covering 3 decades). EC50 values were calculated by nonlinear regression using sigmoid concentration-response with variable slope.

[8] abbreviates: apparent Ki of filtrate after incubation at pH7.1-7.2, assumed 10 mg/ml, read-out: RLB 7 (pH7.1-7.2).
[9] abbreviates: apparent Ki of filtrate after incubation at pH8.1-8.2, assumed 10 mg/ml, read-out: RLB 8 (pH8.1-8.2).
Where [10] appears, read: Table 3, 125I-PYY(1-36) competition, read-out: Ki.

T1 sequence (P50391 whole entry): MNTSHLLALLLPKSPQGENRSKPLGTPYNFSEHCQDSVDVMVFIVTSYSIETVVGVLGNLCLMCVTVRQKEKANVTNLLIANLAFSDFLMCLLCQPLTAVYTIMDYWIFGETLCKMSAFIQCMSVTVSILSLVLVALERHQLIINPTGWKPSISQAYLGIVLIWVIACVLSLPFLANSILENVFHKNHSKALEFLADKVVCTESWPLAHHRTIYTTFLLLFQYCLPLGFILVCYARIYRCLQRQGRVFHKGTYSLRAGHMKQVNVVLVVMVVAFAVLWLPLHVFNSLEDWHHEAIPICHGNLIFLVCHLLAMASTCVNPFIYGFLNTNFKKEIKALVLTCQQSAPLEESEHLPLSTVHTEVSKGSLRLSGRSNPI

Broadly, the EC50 is the concentration needed to bring the measured effect to its halfway point. The low end stands for higher potency in that assay, the high end for lower potency in that assay. As for `CC[C@H](C)[C@H](NC(=O)[C@H](Cc1ccc(O)cc1)NC(=O)[C@H](Cc1ccc(O)cc1)NC(=O)[C@H](CCCNC(=N)N)NC(=O)[C@H](CCC(N)=O)NC(=O)[C@@H](NC(=O)[C@H](CCC(=O)O)NC(=O)[C@H](CCC(=O)O)NC(=O)[C@@H]1CCCN1C(=O)[C@H](CO)NC(=O)[C@H](C)NC(=O)[C@H](CC(=O)O)NC(=O)[C@H](C)NC(=O)[C@H](CCC(=O)O)NC(=O)[C@@H]1CCCN1C(=O)[C@H](CCCCNC(=O)CCCCCNC(=O)CC[C@H](NC(=O)CCCCCCCCCCCCCCCCC(=O)O)C(=O)O)NC(=O)[C@H](CCC(=O)O)NC(=O)[C@@H]1CCCN1C(=O)[C@H](C)NC(=O)CC(C)C)[C@@H](C)CC)C(=O)N[C@@H](C)C(=O)N[C@@H](CC(C)C)C(=O)N[C@@H](CCCNC(=N)N)C(=O)N[C@@H](Cc1c[nH]cn1)C(=O)N[C@@H](Cc1ccc(O)cc1)C(=O)N[C@@H](Cc1ccc(O)cc1)C(=O)N[C@@H](CC(N)=O)C(=O)N[C@@H](Cc1c[nH]c2ccccc12)C(=O)N[C@@H](CC(C)C)C(=O)N[C@H](C(=O)N[C@@H](CCCNC(=N)N)C(=O)N[C@@H](CCC(N)=O)C(=O)N[C@@H](CCCNC(=N)N)C(=O)N[C@@H](Cc1ccc(O)cc1)C(N)=O)[C@@H](C)O` [Compound 40, N{alpha-4}-(3-methylbutanoyl)-N{epsilon-7}-(6-[(4S)-4-carboxy-4-(17-carboxyheptadecanamido)butanamido]hexanoyl)[4A,7K,9E,10A,17I,18Q,22I,23A,28Y,30W,31L]-hPYY(4-36)], the EC50 in data set [1], in data set [4] and in data set [5] was above 5000 nM throughout. Besides, the “Sol6” value in data set [2] worked out at 8.5 mg/mL. Moreover, the “Sol7” value in data set [2] was 8.2 mg/mL. The Ki came to 7.3 nM in data set [3] (setting [8]) and 3.8 nM in data set [3] (setting [9]).
In the case of `CC[C@H](C)[C@H](NC(=O)[C@H](CCC(=O)O)NC(=O)[C@H](CCC(=O)O)NC(=O)[C@@H]1CCCN1C(=O)[C@@H](NC(=O)[C@H](C)NC(=O)[C@H](CC(=O)O)NC(=O)[C@H](CCC(=O)O)NC(=O)[C@H](CCC(=O)O)NC(=O)[C@@H]1CCCN1C(=O)[C@H](CCCCNC(=O)CCCCCNC(=O)CC[C@H](NC(=O)CCCCCCCCCCCCCCCCC(=O)O)C(=O)O)NC(=O)[C@H](CCC(=O)O)NC(=O)[C@@H]1CCCN1C(=O)[C@H](C)NC(=O)CC(C)C)[C@@H](C)O)C(=O)N[C@@H](CCC(N)=O)C(=O)N[C@@H](CCCNC(=N)N)C(=O)N[C@@H](Cc1ccc(O)cc1)C(=O)N[C@@H](Cc1ccc(O)cc1)C(=O)N[C@H](C(=O)N[C@@H](CO)C(=O)N[C@@H](CC(C)C)C(=O)N[C@@H](CCCNC(=N)N)C(=O)N[C@@H](Cc1c[nH]cn1)C(=O)N[C@@H](Cc1ccc(O)cc1)C(=O)N[C@@H](Cc1ccc(O)cc1)C(=O)N[C@@H](CC(N)=O)C(=O)N[C@@H](Cc1c[nH]c2ccccc12)C(=O)N[C@@H](CC(C)C)C(=O)N[C@H](C(=O)N[C@@H](CCCNC(=N)N)C(=O)N[C@@H](CCC(N)=O)C(=O)N[C@@H](CCCNC(=N)N)C(=O)N[C@@H](Cc1ccc(O)cc1)C(N)=O)[C@@H](C)O)C(C)C` [Compound 176, N{alpha-4}-(3-methylbutanoyl)-N{epsilon-7}-(6-[(4S)-4-carboxy-4-(17-carboxyheptadecanamido)butanamido]hexanoyl)-[4A,7K,9E,13T,17I,18Q,22V,28Y,30W,31L]-hPYY(4-36)], the Ki in data set [6] (setting [10]) was found to be 1.48 nM; in data set [6] (Table 8, DMSO stock, read-out: hY2R RLB Ki (nM) DMSO), 8.7 nM; in data set [3] (apparent Ki of filtrate after incubation at pH6.1-6.2, assumed 10 mg/ml, read-out: RLB 6 (pH6.1-6.2)) it was 3.9 nM; in data set [3] (setting [8]) it was 4 nM; in data set [3] (setting [9]), 5.7 nM. The concentration for a half-maximal effect (EC50) in data set [1], in data set [4] and in data set [5] was above 5000 nM each time. The “Sol6” value in data set [2] stood at 9.4 mg/mL. The “Sol7” value in data set [2] amounted to 9.3 mg/mL.
For `CC[C@H](C)[C@H](NC(=O)[C@H](CCC(=O)O)NC(=O)[C@H](CCC(=O)O)NC(=O)[C@H](CCC(=O)O)NC(=O)[C@H](CO)NC(=O)[C@H](C)NC(=O)[C@H](CC(=O)O)NC(=O)[C@H](CCC(=O)O)NC(=O)[C@H](CCC(=O)O)NC(=O)[C@@H]1CCCN1C(=O)[C@H](CCCCNC(=O)CCCCCNC(=O)CC[C@H](NC(=O)CCCCCCCCCCCCCCCCC(=O)O)C(=O)O)NC(=O)[C@H](CCC(=O)O)NC(=O)[C@@H]1CCCN1C(=O)[C@H](C)NC(=O)CC(C)C)C(=O)N[C@@H](CCC(N)=O)C(=O)N[C@@H](CCCNC(=N)N)C(=O)N[C@@H](Cc1ccc(O)cc1)C(=O)N[C@@H](Cc1ccc(O)cc1)C(=O)N[C@H](C(=O)N[C@@H](CO)C(=O)N[C@@H](CC(C)C)C(=O)N[C@@H](CCCNC(=N)N)C(=O)N[C@@H](Cc1c[nH]cn1)C(=O)N[C@@H](Cc1ccc(O)cc1)C(=O)N[C@@H](Cc1ccc(O)cc1)C(=O)N[C@@H](CC(N)=O)C(=O)N[C@@H](Cc1c[nH]c2ccccc12)C(=O)N[C@@H](CC(C)C)C(=O)N[C@H](C(=O)N[C@@H](CCCNC(=N)N)C(=O)N[C@@H](CCC(N)=O)C(=O)N[C@@H](CCCNC(=N)N)C(=O)N[C@@H](Cc1ccc(O)cc1)C(N)=O)[C@@H](C)O)C(C)C` [Compound 55, N{alpha-4}-(3-methylbutanoyl)-N{epsilon-7}-(6-[(4S)-4-carboxy-4-(17-carboxyheptadecanamido)butanamido]hexanoyl)-[4A,7K,9E,14E,17I,18Q,22V,28Y,30W,31L]-hPYY(4-36)], in data set [6] (setting [10]), the Ki was found to be 2.96 nM. The EC50 in data set [1] was above 5000 nM; in data set [4], above 5000 nM; in data set [7], 0.352 nM; in data set [5] it was above 5000 nM. The “Sol6” value in data set [2] was above 10.0 mg/mL. In data set [2], the “Sol7” value is above 10.0 mg/mL.
